{"source": "paper PMC7044277", "about": "(Nature Communications, 2020)", "assay_type_in_all_cases": "cell-based", "key": {"320 non-olfactory GPCRs [1]": {"target": "T1, 320 non-olfactory GPCRs (Homo sapiens, UniProt P08588)", "T1 construct": "expressed in transfected cells; host or cells: HTLA cells", "T1 sequence (P08588 whole entry)": "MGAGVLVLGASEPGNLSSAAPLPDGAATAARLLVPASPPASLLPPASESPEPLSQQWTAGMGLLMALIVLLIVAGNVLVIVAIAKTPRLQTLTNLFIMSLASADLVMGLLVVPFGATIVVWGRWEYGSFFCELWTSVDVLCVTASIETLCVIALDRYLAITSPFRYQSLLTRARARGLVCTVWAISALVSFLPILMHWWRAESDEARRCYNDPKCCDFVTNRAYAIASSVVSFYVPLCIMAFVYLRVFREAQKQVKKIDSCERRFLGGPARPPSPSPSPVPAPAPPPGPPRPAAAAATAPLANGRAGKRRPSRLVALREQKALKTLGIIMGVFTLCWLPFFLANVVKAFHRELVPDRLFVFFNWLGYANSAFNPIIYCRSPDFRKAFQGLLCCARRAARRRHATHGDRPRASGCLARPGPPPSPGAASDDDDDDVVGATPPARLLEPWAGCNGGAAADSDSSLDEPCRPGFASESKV"}, "320 non-olfactory GPCRs [2]": {"target": "T2, 320 non-olfactory GPCRs (Homo sapiens, UniProt P49146)", "T2 construct": "expressed in transfected cells; host or cells: HTLA cells", "T2 sequence (P49146 whole entry)": "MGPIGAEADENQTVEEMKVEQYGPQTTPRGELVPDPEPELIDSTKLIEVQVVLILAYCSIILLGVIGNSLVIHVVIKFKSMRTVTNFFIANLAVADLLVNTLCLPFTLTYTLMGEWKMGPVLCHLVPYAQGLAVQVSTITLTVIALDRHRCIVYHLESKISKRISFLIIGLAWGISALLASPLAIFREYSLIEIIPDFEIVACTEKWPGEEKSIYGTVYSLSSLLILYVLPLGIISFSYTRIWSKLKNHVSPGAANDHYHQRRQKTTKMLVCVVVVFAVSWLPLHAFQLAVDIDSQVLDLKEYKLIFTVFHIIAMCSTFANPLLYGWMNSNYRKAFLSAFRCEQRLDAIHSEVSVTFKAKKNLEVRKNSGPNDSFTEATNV", "details": "receptor NPY2R; replicate values, Fig_4g"}, "320 non-olfactory GPCRs [3]": {"target": "T3, 320 non-olfactory GPCRs (Homo sapiens, UniProt P51582)", "T3 construct": "expressed in transfected cells; host or cells: HTLA cells", "T3 sequence (P51582 whole entry)": "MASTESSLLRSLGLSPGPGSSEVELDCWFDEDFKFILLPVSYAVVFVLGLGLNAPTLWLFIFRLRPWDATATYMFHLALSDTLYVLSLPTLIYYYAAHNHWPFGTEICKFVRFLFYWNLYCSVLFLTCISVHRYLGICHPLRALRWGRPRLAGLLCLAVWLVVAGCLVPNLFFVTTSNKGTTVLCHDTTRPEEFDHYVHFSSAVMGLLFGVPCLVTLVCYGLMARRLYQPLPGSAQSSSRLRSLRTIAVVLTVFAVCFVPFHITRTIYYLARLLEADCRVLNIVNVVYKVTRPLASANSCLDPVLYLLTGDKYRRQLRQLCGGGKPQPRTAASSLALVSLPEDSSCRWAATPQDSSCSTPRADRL", "details": "receptor P2RY4; replicate values, Fig_4g"}, "320 non-olfactory GPCRs [4]": {"target": "T4, 320 non-olfactory GPCRs (Homo sapiens, UniProt Q8TDS5)", "T4 construct": "expressed in transfected cells; host or cells: HTLA cells", "T4 sequence (Q8TDS5 whole entry)": "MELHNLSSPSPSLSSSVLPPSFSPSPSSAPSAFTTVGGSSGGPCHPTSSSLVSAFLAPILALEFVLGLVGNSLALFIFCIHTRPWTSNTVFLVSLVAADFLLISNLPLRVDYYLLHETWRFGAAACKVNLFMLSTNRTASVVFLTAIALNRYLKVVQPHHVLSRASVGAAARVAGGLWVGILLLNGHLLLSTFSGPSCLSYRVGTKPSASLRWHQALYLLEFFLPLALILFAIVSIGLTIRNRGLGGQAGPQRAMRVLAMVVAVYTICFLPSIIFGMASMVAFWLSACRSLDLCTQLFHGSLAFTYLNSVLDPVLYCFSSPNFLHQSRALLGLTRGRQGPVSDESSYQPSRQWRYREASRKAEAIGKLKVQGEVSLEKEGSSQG", "details": "receptor OXER1; replicate values, Fig_4g"}}, "note": "“And” between values parts separate entries of the source, which are not always exact repeats. Equal values may be shown once.", "data": [{"compound": "CCOc1cccc2cc(C(C)NCC3(O)CCCCC3)oc12", "note": "(stereo not shown) [O4LE6];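 for Fold of Basal: compound tested at 1 µM final concentration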;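 for GPCRome agonism screen response: fold over basal response of each receptor without drug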", "values": [{"measurement": "Fold of Basal", "setting": "320 non-olfactory GPCRs [1]", "result": "0.9495 and 0.9531 and 1.111 and 0.8261"}, {"measurement": "GPCRome agonism screen response", "setting": "320 non-olfactory GPCRs [2]", "result": "0.7835 and 0.8337 and 0.6188 and 0.7117"}, {"measurement": "GPCRome agonism screen response", "setting": "320 non-olfactory GPCRs [3]", "result": "0.9286 and 1.003 and 1.314 and 2.009"}, {"measurement": "GPCRome agonism screen response", "setting": "320 non-olfactory GPCRs [4]", "result": "0.5177 and 0.9727 and 1.432 and 1.135"}]}]}
